Patent publication US8236827B2, “Compounds” (Spear Therapeutics Limited, priority 2009, dated 2012)

What was measured:
[1] = Cytotoxicity (MTS) in CHO/CYP1B1 cells; format: cell-based, Chinese Hamster; details: Chinese hamster
Procedure: (§1) CHO/CYP1A1 and CHO/CYP1B1 cells: CHO cells containing recombinant CYP1A1 and recombinant CYP1B1 co-expressing P450 reductase, namely (CHO/CYP1A1) and (CHO/CYP1B1) respectively, were cultured using the standard culture medium for CHO cells supplemented with 0.4 mg/ml G418 disulfate salt and 0.3 μM methotrexate (Sigma/Aldrich Co., Gillingham, Dorset, UK) according to methods described in the literature (ibid.) Cells were grown at 37° C. in a humidified atmosphere plus 5% CO2.
(§2) A single cell suspension of CHO, CHO/CYP1A1 or CHO/CYP1B1 in 100 μl of the required cell culture medium was seeded onto 96-well plates at a cell density of 1500 cells per well and placed in an incubator for 24 h at 37° C. The stock solution of test compound in DMSO was then added to give a concentration range of 100, 30, 10, 3, 1, 0.3, 0.1, 0.03, 0.01, 0.003, 0.001, 0 μM. The final concentration of DMSO 0.2% was found not to affect the growth characteristics of the various CHO cell lines. The cells were incubated with the test compound for 96 h after which all the medium was aspirated and replaced with 100 μl of fresh medium to compensate for the loss of medium due to evaporation. The cells were incubated with 20 μl of the MTS assay reagent for 1.5 h and the absorbance per well at 510 nm measured using a plate reader. The mean absorbance and standard deviation for each test compound concentration was calculated versus a series of controls including (a) cells plus medium, (b) cell plus medium containing DMSO 0.2%, (c) medium alone, and (d) medium containing DMSO 0.2% and a range of test compound concentrations from 0 to 100 μM.
(§3) The MTS assay is a homogeneous, colorimetric method for determining the number of viable cells in proliferation, cytotoxicity or chemosensitivity assays (Cali J J, et al., “Luminescence-Based Methods and Probes for Measuring Cytochrome P450 Activity”, pp. 1-29. Promega Corporation, United States, 2004, the contents of which are incorporated herein by reference). The assay is composed of solutions of tetrazolium compound [3-(4,5-dimethylthiazol-2-yl)-5-(3-carboxymethoxyphenyl)-2-(4-sulfophenyl)-2H-tetrazolium, inner salt; MTS] and an electron coupling reagent (phenazine methosulfate) PMS. MTS is bioreduced by cells into a formazan product that is soluble in tissue culture medium. The absorbance of the formazan product at 510 nm can be directly measured from 96-well assay plates. The quantity of formazan product as measured by the amount of absorbance at 490 or 510 nm is directly proportional to the number of living cells in culture.

CHO/CYP1B1 cells = assay: Cytotoxicity (MTS) in CHO/CYP1B1 cells; format: cell-based, Chinese Hamster
Procedure: as §1, §2, §3

wild-type CHO cells = assay: Cytotoxicity (MTS) in wild-type CHO cells; format: cell-based, Chinese Hamster; details: for IC50: Cricetulus griseus, CHO, 96 h, MTS
Procedure: CHO cells: Chinese Hamster Ovary (CHO) DUKXB11 cells were grown under standard cell culture conditions in α-MEM supplemented with 10% FCS, 1 unit/ml each of hypoxanthine and thymidine, and penicillin (100 IU/ml) and streptomycin (100 μg/ml) according to literature methods (Ding S, et al., Arch. Biochem. Biophys., 348: 403-410, 1997, the contents of which are incorporated herein by reference). Cells were grown at 37° C. in a humidified atmosphere plus 5% CO2.
as §2, §3

CHO/CYP1A1 cells = assay: Cytotoxicity (MTS) in CHO/CYP1A1 cells; format: cell-based, Chinese Hamster
Procedure: as §1, §2, §3

[2] = Cytotoxicity (MTS) in CHO/CYP1A1 cells; format: cell-based, Chinese Hamster; details: Chinese hamster; 96 h, MTS
Procedure: as §1, §2, §3

CYP3A5 = CYP3A5 (Homo sapiens, UniProt P20815); assay: CYP phenotyping, metabolic stability; format: in vitro ADME; details: CYP3A5 (10 pm/mL)
Chain of CYP3A5 (P20815 whole entry, species assumed): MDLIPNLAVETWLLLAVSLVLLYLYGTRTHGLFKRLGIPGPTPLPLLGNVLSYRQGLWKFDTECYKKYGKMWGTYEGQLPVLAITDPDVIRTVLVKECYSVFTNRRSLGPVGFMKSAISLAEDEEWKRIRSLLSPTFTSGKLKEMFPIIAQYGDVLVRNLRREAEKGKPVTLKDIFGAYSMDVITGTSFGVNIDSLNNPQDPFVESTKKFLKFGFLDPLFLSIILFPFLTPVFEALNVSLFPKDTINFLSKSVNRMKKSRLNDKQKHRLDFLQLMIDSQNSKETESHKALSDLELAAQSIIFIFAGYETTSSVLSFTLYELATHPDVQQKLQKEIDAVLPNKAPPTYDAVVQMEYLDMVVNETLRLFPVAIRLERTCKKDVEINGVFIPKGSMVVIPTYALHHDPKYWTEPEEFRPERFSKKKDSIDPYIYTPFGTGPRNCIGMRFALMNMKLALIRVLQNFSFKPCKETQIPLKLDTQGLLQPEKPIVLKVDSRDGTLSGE
Procedure: (§4) As mentioned above, a feature of the compounds of the invention is their metabolism by CYP1B1 which is expressed at high frequency in a wide range of human cancers of different histogenetic types, but not in normal tissues. […] Compounds V and II were exposed to a panel of six CYPs (see Table 5 below).
(§5) CYP metabolism studies were performed by Cerep Laboratories (Redmond, Wash., USA). Compounds were screened in duplicate at 1 μM in the presence of CYP enzyme, NADP (1.3 mM), D-Glucose-6-phosphate (3.3 mM) and Glucose-6-phosphate dehydrogenase. Following incubation at 0 and 60 minutes, parent compound levels were determined using standard HPLC/MS/MS procedures. The results are expressed as percent parent compound remaining after 60 minutes.

CYP2D6 = CYP2D6 (Homo sapiens, UniProt P10635); assay: CYP phenotyping, metabolic stability; format: in vitro ADME; details: CYP2D6 (10 pm/mL); 1 μM; after 60 minutes
Chain of CYP2D6 (P10635 whole entry, species assumed): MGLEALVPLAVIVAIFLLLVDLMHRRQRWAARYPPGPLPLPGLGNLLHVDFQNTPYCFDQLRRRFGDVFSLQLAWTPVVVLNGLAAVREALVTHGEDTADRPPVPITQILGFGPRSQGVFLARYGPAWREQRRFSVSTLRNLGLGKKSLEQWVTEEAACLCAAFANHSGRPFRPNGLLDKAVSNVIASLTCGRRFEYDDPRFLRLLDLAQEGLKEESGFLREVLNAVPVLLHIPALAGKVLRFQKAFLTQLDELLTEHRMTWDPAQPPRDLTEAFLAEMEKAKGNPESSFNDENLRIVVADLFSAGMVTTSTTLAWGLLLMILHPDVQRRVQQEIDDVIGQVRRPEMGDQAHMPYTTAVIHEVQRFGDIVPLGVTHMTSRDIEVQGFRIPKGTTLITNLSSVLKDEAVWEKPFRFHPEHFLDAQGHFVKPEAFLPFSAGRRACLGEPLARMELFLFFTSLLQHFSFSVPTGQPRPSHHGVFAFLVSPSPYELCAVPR
Procedure: (§6) Compounds V and II were exposed to a panel of six CYPs (see Table 5 below).
as §5

CYP3A4 = CYP3A4 (Homo sapiens, UniProt P08684); assay: CYP phenotyping, metabolic stability; format: in vitro ADME; details: CYP3A4 (10 pm/mL); 1 μM; after 60 minutes
Chain of CYP3A4 (P08684 whole entry, species assumed): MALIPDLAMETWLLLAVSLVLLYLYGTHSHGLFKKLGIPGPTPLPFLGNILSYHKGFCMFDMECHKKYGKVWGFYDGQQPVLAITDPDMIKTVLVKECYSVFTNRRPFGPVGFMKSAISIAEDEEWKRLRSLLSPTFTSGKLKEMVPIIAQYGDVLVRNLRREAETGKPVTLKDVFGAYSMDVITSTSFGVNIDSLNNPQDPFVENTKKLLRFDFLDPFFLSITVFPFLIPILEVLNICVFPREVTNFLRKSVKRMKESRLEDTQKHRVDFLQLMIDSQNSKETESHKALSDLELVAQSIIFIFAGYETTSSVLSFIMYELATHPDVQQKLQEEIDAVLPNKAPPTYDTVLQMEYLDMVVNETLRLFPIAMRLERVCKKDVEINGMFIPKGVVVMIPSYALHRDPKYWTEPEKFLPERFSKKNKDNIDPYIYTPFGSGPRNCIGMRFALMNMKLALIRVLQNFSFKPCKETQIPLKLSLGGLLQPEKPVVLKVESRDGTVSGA
Procedure: as §6, §5

CYP2C19 = CYP2C19 (Homo sapiens, UniProt P33261); assay: CYP phenotyping, metabolic stability; format: in vitro ADME; details: CYP2C19 (10 pm/mL); 1 μM; after 60 minutes
Chain of CYP2C19 (P33261 whole entry, species assumed): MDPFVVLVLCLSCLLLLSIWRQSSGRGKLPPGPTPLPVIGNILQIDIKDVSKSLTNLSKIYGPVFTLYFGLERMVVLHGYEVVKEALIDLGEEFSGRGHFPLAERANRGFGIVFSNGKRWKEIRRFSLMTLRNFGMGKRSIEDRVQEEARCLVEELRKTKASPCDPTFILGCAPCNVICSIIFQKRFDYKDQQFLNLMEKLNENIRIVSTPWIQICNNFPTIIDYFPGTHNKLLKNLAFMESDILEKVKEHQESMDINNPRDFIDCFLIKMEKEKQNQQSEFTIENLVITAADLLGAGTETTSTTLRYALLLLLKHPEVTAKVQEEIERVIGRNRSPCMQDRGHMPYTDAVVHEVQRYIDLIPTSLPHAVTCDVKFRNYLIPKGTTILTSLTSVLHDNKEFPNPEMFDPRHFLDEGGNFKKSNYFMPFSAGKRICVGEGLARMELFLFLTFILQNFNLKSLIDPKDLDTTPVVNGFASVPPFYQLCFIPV
Procedure: as §6, §5

CYP2C9 = CYP2C9 (Homo sapiens, UniProt P11712); assay: CYP phenotyping, metabolic stability; format: in vitro ADME; details: CYP2C9 (10 pm/mL); 1 μM; after 60 minutes
Chain of CYP2C9 (P11712 whole entry, species assumed): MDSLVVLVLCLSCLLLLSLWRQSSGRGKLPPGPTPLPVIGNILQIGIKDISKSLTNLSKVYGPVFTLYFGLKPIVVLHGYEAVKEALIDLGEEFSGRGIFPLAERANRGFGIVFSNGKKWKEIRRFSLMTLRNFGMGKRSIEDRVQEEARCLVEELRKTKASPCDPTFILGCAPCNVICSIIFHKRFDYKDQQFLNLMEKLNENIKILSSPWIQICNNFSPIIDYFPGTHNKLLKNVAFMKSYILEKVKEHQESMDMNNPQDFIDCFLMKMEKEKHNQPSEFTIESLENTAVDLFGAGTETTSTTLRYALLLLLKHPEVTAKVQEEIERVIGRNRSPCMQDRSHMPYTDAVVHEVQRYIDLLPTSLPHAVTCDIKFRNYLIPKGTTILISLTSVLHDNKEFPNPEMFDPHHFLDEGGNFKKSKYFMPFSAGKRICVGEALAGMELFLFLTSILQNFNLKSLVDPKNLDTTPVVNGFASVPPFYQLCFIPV
Procedure: as §6, §5

CYP1A2 = target: T1, CYP1A2 (Homo sapiens, UniProt P05177); assay: CYP phenotyping, metabolic stability; format: in vitro ADME; details: CYP1A2 (40 pm/mL); 1 μM; after 60 minutes
T1 sequence (P05177 1-516): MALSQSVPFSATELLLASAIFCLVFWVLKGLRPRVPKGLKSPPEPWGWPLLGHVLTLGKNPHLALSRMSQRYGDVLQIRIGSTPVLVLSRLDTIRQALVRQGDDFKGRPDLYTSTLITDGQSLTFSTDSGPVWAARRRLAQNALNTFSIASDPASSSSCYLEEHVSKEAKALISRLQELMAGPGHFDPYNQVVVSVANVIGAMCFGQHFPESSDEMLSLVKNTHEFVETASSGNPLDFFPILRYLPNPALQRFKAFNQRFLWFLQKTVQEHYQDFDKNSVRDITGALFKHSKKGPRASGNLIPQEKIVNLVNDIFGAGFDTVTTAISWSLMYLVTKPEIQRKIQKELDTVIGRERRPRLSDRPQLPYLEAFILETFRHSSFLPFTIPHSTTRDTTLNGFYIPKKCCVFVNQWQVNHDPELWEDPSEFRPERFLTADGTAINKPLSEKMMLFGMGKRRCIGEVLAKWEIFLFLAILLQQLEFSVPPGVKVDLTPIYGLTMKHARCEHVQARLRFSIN
Procedure: as §4, §5

[3] = system: UTSCC-14 xenograft tumours; assay: UTSCC-14 xenograft study in nu/nu mice; format: in vivo; details: 7, 20, 50 mg/kg i.p. daily for 29 days; tumours excised day 40; versus vehicle control
Procedure: The study compared the efficacy of Compound II with a vehicle control in UTSCC-14 xenograft tumours at three different dose levels.
Forty female nu/nu mice (7-9 wks old, weight 20-25 grams) were implanted sc with 2e6 UTSCC-14 cells and randomized 10 days later into […] (Table 1) with an approximate tumour volume of 100-150 mm-3. All groups were dosed daily ip for 29 days. On day 40 tumours were excised and weighed.
The UTSCC-14 cells used in the experiment were sourced from Professor Reidar Grénman's laboratory at the University of Turku, Department of Head and Neck Surgery, Turku University, Turku, Finland) and taken from a grade II primary tumour from the tongue of a head and neck cancer patient.
Compound II was dissolved/suspended in 100% cell culture grade DMSO at 40 mg/ml, before dilution with ddH20 immediately prior to dosing to make a stock 50% DMSO/Water solution. This stock solution was used to prepare all doses by dilution with 50% DMSO/Water to achieve the required concentration.
FIG. 2 compares the weight in grams of tumours excised on day 40 of the study. […] The study provides evidence that Compound II (and related compounds described here) are useful in the development of novel cancer therapies.

[4] = 96 h, MTS, read-out: CHO/CYP1B1 IC50

Structure (SMILES)	IC50 at 96 h [1, 4] [nM]	activity against CHO/CYP1B1 cells (in words) (CHO/CYP1B1 cells)	IC50 (wild-type CHO cells) [nM]	toxicity / activity in CYP1A1 expressing CHO cells (in words) (CHO/CYP1A1 cells)	IC50 at 96 h [2] [nM]	% Reference Compound Remaining (CYP3A5; reference compound) [%]	toxicity to wild-type CHO cells (in words) (wild-type CHO cells)	Mean Parent Remaining (%) (CYP2D6)	Mean Parent Remaining (%) (CYP3A4)	Mean Parent Remaining (%) (CYP2C19)	Mean Parent Remaining (%) (CYP2C9)	Mean Parent Remaining (%) (CYP3A5; 1 μM, after 60 minutes)	Mean Parent Remaining (%) (CYP1A2)	wet tumour weight at the end of the study (FIG. 2) [3]	IC50 at 96 h ([1]; text of b216, read-out: IC50, proliferation of CHO/CYP1B1 cells) [nM]
COc1ccc(-c2cc(-c3ccc4c(c3)OCO4)cc(=O)[nH]2)c(OC)c1 [Compound III]	40 ± 30	active	6110 ± 340	active	950 ± 350										
Cc1ncc2n1-c1ccc(Cl)cc1C(c1ccccc1F)=NC2 [Midazolam, reference compound]						1									
CCCOc1ccc(-c2cc(-c3ccc(OC)c(OC)c3)[nH]c(=O)c2)cc1 [Compound II]	90 ± 50	strongly inhibit proliferation	> 50000	non toxic	> 50000		non toxic	127	122	127	130	126	69	dose dependent reduction in wet tumour weight	
COc1ccc(-c2cc(-c3ccc4c(c3)OCO4)cc(=O)[nH]2)cc1 [Compound VI]		strongly inhibit proliferation	> 100000	non toxic	> 100000		non toxic								500
